Earlier results, collected in patent US20130317456A1, “Transdermal Delivery Systems” (Durect Corporation, priority 2006, published 2013).

Conditions: octanol/water partition coefficient

Compound | log P
CCCN1CCCC[C@H]1C(=O)Nc1c(C)cccc1C [Ropivacaine] | around 2.9
Cc1cccc(C)c1NC(=O)C1CCCCN1C (centres unmarked) [Mepivacaine] | around 1.95
